Read-outs that look alike come from different tables or passages of the source.
Key:
Experiment in all cases: Growth inhibition GI50 in vitro (CCK8/MTT, 72 h)
[1] = system: SW48 (EGFR G719S positive); type: cell-based; conditions: Homo sapiens, SW48; Table 15; 1000 nM to 0.03 nM serial dilution; read-out: GI50 SW48 (EGFR G719S)
Method: PC-9ER is an acquired Erlotinib resistance cell line of PC-9 cells developed by the investor. […] The four cell lines above were cultured with 1×RPMI1640 complete medium (supplement with 10% FBS). Human colon cancer cell line SW48 (EGFR G719S positive, ATCC). was cultured with L15 complete medium (10% FB S).
(§1) The suspension cells were collected by centrifugation. The supernatant was discard and the cell pellet was resuspended and counted. Different cell concentrations (5˜10×10^4 cells/mL) were prepared according to the growth cycle of each cell line and then seeded on a 96-well plate (Corning), 100 μL/well. The cells were incubated over night at 37° C., 5% CO2. The compounds were added to the cells on the second day with 2 wells in parallel. The final concentration of organic solvent shall not exceed 1%. The cells were continually incubated for 72 h, and then subjected to MTT assay.
(§2) The present compounds and the reference compounds were dissolved with DMSO (Sigma), respectively. […] The storage concentration of compounds was 10 mM and kept at −20° C. They were diluted by 2 times or 10 times with serial dilution before using.
(§3) Dojindo CCK8 reagent kit was used as MTT assay. […] FC meter was used as microplate reader.
(§4) Adherent cell culture medium was discard and immediately replaced with fresh prepared medium which contains 10% CCK8 reagent (100 μL/well). For the suspension cells, CCK8 was directly added to 10% of the final concentration. The cells were continually incubated for 1˜4 h. When the color of control wells turned to dark yellow, the absorption value was measured at OD450 nm. The cell growth rate was calculated according to the following formula: cell growth rate (%)=100*(T−T0)/(C−T0), T=optical density of drug treatment cell well—optical density of blank control well; T0=optical density of cell well before drug treatment—optical density of blank control well; C=optical density of cell well of solvent control group—optical density of blank control well. […] The experiment was independently repeated 1˜3 times, and subject to biological statistical analysis.
Each compound started at 1000 nM as an initial concentration and was diluted by […] with serial dilution to 0.03 nM.

[2] = system: N87 (HER2 Amp); type: cell-based, human; conditions: Homo sapiens
[3] = system: NCI-H1781 (HER2 exon 20 G776VC mutation); type: cell-based; conditions: Homo sapiens, NCI-H1781; Table 16; 1000 nM to 0.03 nM serial dilution; read-out: GI50 H1781 (HER2 G776VC)
Method: (§5) Human lung adenocarcinoma cell line Calu-3 (ATCC) was cultured with 1×MEM complete medium (10% FBS, 1% double-antibiotics, 1% NEAA (Gibco), 2 mM glutamine and 1 mM of sodium pyruvate). Human breast cancer cell line SK-BR-3 was cultured with McCOY'S5A complete medium (10% FBS). Human colon cancer cell line SNU1040 (HER2 V777M positive) (ATCC) and human bronchoalveolar adenocarcinoma cell line NCI-H1781 (expressing HER2 exon 20 G776VC mutation) (ATCC) were cultured with 1×RPMI1640 complete medium (10% FBS), respectively.
as §1, with “Adherent cells were digested with 0.25% pancreatin-EDTA (Gibco). The suspension” for “The suspension”
as §2, §3
(§6) Adherent cell culture medium was discard and immediately replaced with fresh prepared medium which contains 10% CCK8 reagent (100 μL/well). For the suspension cells, CCK8 was directly added to 10% of the final concentration. The cells were continually incubated for 1˜4 h. When the color of control wells turned to dark yellow, the absorption value was measured at OD450 nm. The cell growth rate was calculated according to the following formula: cell growth rate (%)=100*(T−T0)/(C−T0), T=optical density of drug treatment cell well—optical density of blank control well; T0=optical density of cell well before drug treatment—optical density of blank control well; C=optical density of cell well of solvent control group—optical density of blank control well. The concentration value of 50% inhibition of cell growth (GI50) was calculated. The experiment was independently repeated 1˜3 times, and subject to biological statistical analysis.
(§7) Furthermore, the present compounds (99, 136, 205, 211, 212, 213, 216, 229, 230, 231, 232, 233 and 236) were selected to carry out growth inhibition test for HER2/ERBB2 gene amplified or high expressed or mutant tumor cells. Afatinib and AZD9291 were used for references as second- and third-generation inhibitors of EGFR.
(§8) Each compound started at 1000 nM as an initial concentration and was diluted by 2 times with serial dilution to 0.03 nM. The GI50 value of each compound was calculated according to Test Example 1.3.

[4] = system: SNU1040 (HER2 V777M positive); type: cell-based; conditions: Homo sapiens; Table 16; 1000 nM to 0.03 nM serial dilution; read-out: GI50 SNU-1040 (HER2 V777M)
Method: as §5
as §1, with “Adherent cells were digested with 0.25% pancreatin-EDTA (Gibco). The suspension” for “The suspension”
as §2, §3, §6, §7, §8

[5] = system: Calu-3 (Her2 amp); type: cell-based; conditions: Homo sapiens, Calu-3; Table 16; 1000 nM to 0.03 nM serial dilution; read-out: GI50 Calu3 (HER2 amp)
Method: as §5, §1, §2, §3, §4

[6] = system: A549 (EGFR WT); type: cell-based, human; conditions: Homo sapiens, A549
[7] = system: PC-9 (EGFR dE746-A750); type: cell-based, human; conditions: Homo sapiens
[8] = system: H1975 (EGFR L858R/T790M); type: cell-based, human; conditions: Homo sapiens, NCI-H1975
[9] = system: H292 (EGFR WT); type: cell-based; conditions: Homo sapiens, NCI-H292; Table 15; 1000 nM to 0.03 nM serial dilution; read-out: GI50 H292 (EGFR WT)
Description: EGFR wild type cell lines: human epidermal cancer cell line A431 (EGFR WT, amplification and high expression, from Shanghai Cell Bank of Chinese Academy of Sciences and ATCC), NSCLC cell lines NCI-H460 (EGFR WT, Kras G61H and PI3KCA E545K mutants, ATCC) and NCI-H1299 (EGFR WT, ATCC), melanoma cell line A375 (EGFR WT and BRAF V600E mutant, from Shanghai Cell Bank of Chinese Academy of Sciences, ATCC), human lung cancer cell line NCI-H292 (EGFR WT, from human lung mucoepidermoid carcinoma/lymphatic metastasis, purchased from Shanghai Cell Bank of Chinese Academy of Sciences) were cultured with 1×RPMI1640 complete medium which was supplement with 10% FBS. NSCLC cell line A549 (EGFR WT and Kras G12S mutant, from Shanghai Cell Bank of Chinese Academy of Sciences) was cultured with 1×Ham'S F12K complete medium which was supplement with 10% FBS, 1% double-antibiotics and 2 mM glutamine.
as §1, §2, §3, §4

In the case of C=CC(=O)Nc1cc(Nc2cc(Nc3cc(C(F)(F)F)ccc3OC)ncn2)c(OC)cc1N(C)CCN(C)C [Compound 233, N-(5-(6-(2-methoxyl-5-trifluoromethyl-phenylamino)-pyrimidin-4-yl-amino)-2-((2-dimethylamino-ethyl)-methyl-amino)-4-methoxyl-phenyl)-acrylamide], the GI50 [1] was 4.19 nM, the GI50 ([2]; Table 13, 72 h, read-out: Range of GI50 N87 (HER2 Amp)) was < 10 nM and the GI50 ([2]; Table 16, 1000 nM to 0.03 nM serial dilution, read-out: GI50 N87 (HER2 amp)) was 0.95 nM. The GI50 [3] was 0.87 nM, the GI50 [4] was 7.21 nM and the GI50 [5] was 0.98 nM. The GI50 ([6]; Table 13, 72 h, read-out: Range of GI50 A549 (EGFR WT)) was > 1000 nM, the GI50 ([6]; Table 15, 1000 nM to 0.03 nM serial dilution, read-out: GI50 A549 (EGFR WT)) was > 1000 nM and the GI50 ([7]; Table 13, 72 h, read-out: Range of GI50 PC-9 (EGFR dE746-A750)) was < 10 nM. For the same compound, the GI50 ([7]; Table 15, 1000 nM to 0.03 nM serial dilution, read-out: GI50 PC-9 (EGFR dE746-A750)) was 0.49 nM, the GI50 ([8]; Table 13, 72 h, read-out: Range of GI50 H1975 (EGFR L858R/T790M)) was 10 to 100 nM and the GI50 ([8]; Table 15, 1000 nM to 0.03 nM serial dilution, read-out: GI50 H1975 (EGFR L858R/T790M)) was 19.2 nM. For the same compound, the GI50 [9] was > 1000 nM.
